Assay results as given in patent publication US20230085307A1, “PYRIDAZINONE COMPOUND AND HERBICIDE” (NISSAN CHEMICAL CORPORATION, priority 2019, published 2023).

Tests used:
[1] = test system: redroot pigweed; experiment: Test Example 4: herbicidal effect by soil treatment (Table 19, symbol N); type: in vivo, redroot pigweed (Amaranthus retroflexus)
Summary of the method: (§1)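 Pre-emergence style soil spray: seeds under ~1.5 cm sterilized diluvial soil received a uniform coat of emulsion diluted to the predetermined herbicide amount. Greenhouse 25–30° C; readout at week three on previously defined criteria.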

[2] = test system: wild oat; experiment: Test Example 4: herbicidal effect by soil treatment (Table 19, symbol I); type: in vivo, wild oat (Avena fatua)
Summary of the method: as §1

[3] = test system: barnyard grass; experiment: Test Example 5: herbicidal effect by foliage application, plastic box (Table 20, symbol H); type: in vivo, barnyard grass (Echinochloa crus-galli)
Summary of the method: (§2)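 Plants were sown into sterilized diluvial soil under about 1.5 cm cover and kept in a greenhouse at 25° C. to 30° C. Fourteen days on, foliage received an even spray of the diluted emulsion. Herbicidal or crop effect was judged three weeks afterwards.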

[4] = test system: late watergrass; experiment: Test Example 2: herbicidal activity, application during weed generation under submerged conditions (Table 17, symbol A); type: in vivo, late watergrass (Echinochloa oryzicola); conditions: AAH 320 g/ha; application during weed generation, submerged conditions
Summary of the method: (§3)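 Herbicide emulsion, diluted with water to the chosen amount, is applied onto 4 cm floodwater over alluvial soil where the weeds were co-sown and raised at 25–30° C. Application timing: 1–2 leaves. Assessment: three weeks afterwards.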

[5] = test system: Italian ryegrass; experiment: Test Example 5: herbicidal effect by foliage application, plastic box (Table 20, symbol K); type: in vivo, Italian ryegrass (Lolium multiflorum)
Summary of the method: as §2

[6] = test system: redroot pigweed; experiment: Test Example 5: herbicidal effect by foliage application, plastic box (Table 20, symbol N); type: in vivo, redroot pigweed (Amaranthus retroflexus)
Summary of the method: as §2

[7] = test system: velvetleaf; experiment: Test Example 5: herbicidal effect by foliage application, plastic box (Table 20, symbol M); type: in vivo, velvetleaf (Abutilon theophrasti)
Summary of the method: as §2

[8] = test system: Chinese sprangletop; experiment: Test Example 3: herbicidal effect by foliage application, Wagner pot (Table 18, symbol D); type: in vivo, chinese sprangletop (Leptochloa chinensis); conditions: 320 g/ha
Summary of the method: (§4)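 Plants were sown in alluvial soil held under 0.1–0.5 cm standing water and grown 14 days in a greenhouse at 25–30 °C. An emulsifiable formulation, water-diluted to the set dose, was then sprayed onto the foliage, and effects were scored three weeks later using previously defined criteria.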

[9] = test system: lambsquarters; experiment: Test Example 4: herbicidal effect by soil treatment (Table 19, symbol O); type: in vivo, lambsquarters (Chenopodium album)
Summary of the method: as §1

[10] = test system: wild oat; experiment: Test Example 5: herbicidal effect by foliage application, plastic box (Table 20, symbol I); type: in vivo, wild oat (Avena fatua)
Summary of the method: as §2

[11] = test system: persian speedwell; experiment: Test Example 4: herbicidal effect by soil treatment (Table 19, symbol R); type: in vivo, Persian speedwell (Veronica persica)
Summary of the method: as §1

[12] = test system: southern crabgrass; experiment: Test Example 4: herbicidal effect by soil treatment (Table 19, symbol F); type: in vivo, southern crabgrass (Digitaria ciliaris)
Summary of the method: as §1

[13] = test system: barnyard grass; experiment: Test Example 4: herbicidal effect by soil treatment (Table 19, symbol H); type: in vivo, barnyard grass (Echinochloa crus-galli)
Summary of the method: as §1

[14] = test system: green foxtail; experiment: Test Example 5: herbicidal effect by foliage application, plastic box (Table 20, symbol G); type: in vivo, green foxtail (Setaria viridis)
Summary of the method: as §2

[15] = test system: barnyard grass; experiment: Test Example 3: herbicidal effect by foliage application, Wagner pot (Table 18, symbol H); type: in vivo, barnyard grass (Echinochloa crus-galli); conditions: 320 g/ha
Summary of the method: as §4

[16] = test system: blackgrass; experiment: Test Example 4: herbicidal effect by soil treatment (Table 19, symbol J); type: in vivo, blackgrass (Alopecurus myosuroides)
Summary of the method: as §1

[17] = test system: chickweed; experiment: Test Example 5: herbicidal effect by foliage application, plastic box (Table 20, symbol P); type: in vivo, common chickweed (Stellaria media)
Summary of the method: as §2

[18] = test system: Japanese bulrush; experiment: Test Example 2: herbicidal activity, application during weed generation under submerged conditions (Table 17, symbol B); type: in vivo, Japanese bulrush (Schoenoplectus juncoides); conditions: AAH 320 g/ha; application during weed generation, submerged conditions
Summary of the method: as §3

[19] = test system: persian speedwell; experiment: Test Example 5: herbicidal effect by foliage application, plastic box (Table 20, symbol R); type: in vivo, Persian speedwell (Veronica persica)
Summary of the method: as §2

[20] = test system: blackgrass; experiment: Test Example 5: herbicidal effect by foliage application, plastic box (Table 20, symbol J); type: in vivo, blackgrass (Alopecurus myosuroides)
Summary of the method: as §2

[21] = test system: windgrass; experiment: Test Example 4: herbicidal effect by soil treatment (Table 19, symbol L); type: in vivo, windgrass (Apera spica-venti)
Summary of the method: as §1

[22] = test system: southern crabgrass; experiment: Test Example 5: herbicidal effect by foliage application, plastic box (Table 20, symbol F); type: in vivo, southern crabgrass (Digitaria ciliaris)
Summary of the method: as §2

[23] = test system: windgrass; experiment: Test Example 5: herbicidal effect by foliage application, plastic box (Table 20, symbol L); type: in vivo, windgrass (Apera spica-venti)
Summary of the method: as §2

[24] = test system: oval-leafed pondweed; experiment: Test Example 2: herbicidal activity, application during weed generation under submerged conditions (Table 17, symbol C); type: in vivo, oval-leafed pondweed (Monochoria vaginalis); conditions: AAH 320 g/ha; application during weed generation, submerged conditions
Summary of the method: as §3

[25] = test system: green foxtail; experiment: Test Example 4: herbicidal effect by soil treatment (Table 19, symbol G); type: in vivo, green foxtail (Setaria viridis)
Summary of the method: as §1

[26] = test system: velvetleaf; experiment: Test Example 4: herbicidal effect by soil treatment (Table 19, symbol M); type: in vivo, velvetleaf (Abutilon theophrasti)
Summary of the method: as §1

[27] = test system: chickweed; experiment: Test Example 4: herbicidal effect by soil treatment (Table 19, symbol P); type: in vivo, common chickweed (Stellaria media)
Summary of the method: as §1

[28] = test system: Italian ryegrass; experiment: Test Example 4: herbicidal effect by soil treatment (Table 19, symbol K); type: in vivo, Italian ryegrass (Lolium multiflorum)
Summary of the method: as §1

[29] = test system: rice flat sedge; experiment: Test Example 3: herbicidal effect by foliage application, Wagner pot (Table 18, symbol E); type: in vivo, rice flat sedge (Cyperus iria); conditions: 320 g/ha
Summary of the method: as §4

[30] = test system: lambsquarters; experiment: Test Example 5: herbicidal effect by foliage application, plastic box (Table 20, symbol O); type: in vivo, lambsquarters (Chenopodium album)
Summary of the method: as §2

[31] = amount of applied herbicide 320 g/ha
[32] = amount of applied herbicide 320 g/ha, foliage application after 14-day growth, evaluated three weeks after application
[33] = foliage application, AAH 320 g/ha, three weeks after application

For `Cc1nn(C)c(=O)c(-c2c(-c3ccccc3OC(F)F)sc3cc(F)c(F)cc23)c1O` [5-021], the “N: redroot pigweed, herbicidal effect grade” value [1, 31] was 4 (Herbicidal rate of 70% or more and less than 90%), the “I: wild oat, herbicidal effect grade” value [2, 31] was 0 (Herbicidal rate of 5% or less (almost no effect)) and the “Herbicidal effect by foliage application, H: barnyard grass” value [3, 32] was 4 (Herbicidal rate of 70% or more and less than 90%). For the same compound, the “herbicidal effect rating, A: late watergrass” value [4] was 0 (Herbicidal rate of 5% or less (almost no effect)), the “Herbicidal effect by foliage application, K: Italian ryegrass” value [5, 32] was 4 (Herbicidal rate of 70% or more and less than 90%) and the “Herbicidal effect by foliage application, N: redroot pigweed” value [6, 32] was 4 (Herbicidal rate of 70% or more and less than 90%). The “Herbicidal effect by foliage application, M: velvetleaf” value [7, 32] was 5 (Herbicidal rate of 90% or more (almost completely withered)), the “herbicidal effect on Chinese sprangletop (D)” value [8] was 3 (Herbicidal rate of 40% or more and less than 70%) and the “O: lambsquarters, herbicidal effect grade” value [9, 31] was 3 (Herbicidal rate of 40% or more and less than 70%). The “Herbicidal effect by foliage application, I: wild oat” value [10, 32] was 2 (Herbicidal rate of 20% or more and less than 40%), the “R: persian speedwell, herbicidal effect grade” value [11, 31] was 5 (Herbicidal rate of 90% or more (almost completely withered)) and the “F: southern crabgrass, herbicidal effect grade” value [12, 31] was 5 (Herbicidal rate of 90% or more (almost completely withered)). The “H: barnyard grass, herbicidal effect grade” value [13, 31] was 4 (Herbicidal rate of 70% or more and less than 90%), the “Herbicidal effect by foliage application, G: green foxtail” value [14, 32] was 5 (Herbicidal rate of 90% or more (almost completely withered)) and the “herbicidal effect on barnyard grass (H)” value [15] was 4 (Herbicidal rate of 70% or more and less than 90%). The “J: blackgrass, herbicidal effect grade” value [16, 31] was 0 (Herbicidal rate of 5% or less (almost no effect)), the “Herbicidal effect by foliage application, P: chickweed” value [17, 32] was 5 (Herbicidal rate of 90% or more (almost completely withered)) and the “herbicidal effect rating, B: Japanese bulrush” value [18] was 2 (Herbicidal rate of 20% or more and less than 40%). The “Herbicidal effect by foliage application, R: persian speedwell” value [19, 32] was 5 (Herbicidal rate of 90% or more (almost completely withered)), the “Herbicidal effect by foliage application, J: blackgrass” value [20, 32] was 4 (Herbicidal rate of 70% or more and less than 90%) and the “L: windgrass, herbicidal effect grade” value [21, 31] was 4 (Herbicidal rate of 70% or more and less than 90%). For the same compound, the “Herbicidal effect by foliage application, F: southern crabgrass” value [22, 32] was 5 (Herbicidal rate of 90% or more (almost completely withered)), the “Herbicidal effect by foliage application, L: windgrass” value [23, 32] was 5 (Herbicidal rate of 90% or more (almost completely withered)) and the “herbicidal effect rating, C: oval-leafed pondweed” value [24] was 0 (Herbicidal rate of 5% or less (almost no effect)). The “G: green foxtail, herbicidal effect grade” value [25, 31] was 5 (Herbicidal rate of 90% or more (almost completely withered)), the “M: velvetleaf, herbicidal effect grade” value [26, 31] was 4 (Herbicidal rate of 70% or more and less than 90%) and the “P: chickweed, herbicidal effect grade” value [27, 31] was 2 (Herbicidal rate of 20% or more and less than 40%). The “K: Italian ryegrass, herbicidal effect grade” value [28, 31] was 0 (Herbicidal rate of 5% or less (almost no effect)), the “herbicidal effect on rice flat sedge (E)” value [29] was 5 (Herbicidal rate of 90% or more (almost completely withered)) and the “Herbicidal effect by foliage application, O: lambsquarters” value [30, 32] was 3 (Herbicidal rate of 40% or more and less than 70%).

In the case of `Cc1nn(C)c(=O)c(-c2c(-c3ccc(OCc4cnc(Cl)s4)cc3)sc3ccccc23)c1O` [1-144], the “N: redroot pigweed, herbicidal effect rating” value ([1]; AAH 320 g/ha) is reported as 0 (Herbicidal rate of 5% or less (almost no effect)), the “I: wild oat, herbicidal effect rating” value ([2]; AAH 320 g/ha) is reported as 0 (Herbicidal rate of 5% or less (almost no effect)) and the “H: barnyard grass, herbicidal effect” value [3, 33] is reported as 5 (Herbicidal rate of 90% or more (almost completely withered)). The “herbicidal effect rating, A: late watergrass” value [4] was 2 (Herbicidal rate of 20% or more and less than 40%), the “K: Italian ryegrass, herbicidal effect” value [5, 33] was 4 (Herbicidal rate of 70% or more and less than 90%) and the “N: redroot pigweed, herbicidal effect” value [6, 33] was 3 (Herbicidal rate of 40% or more and less than 70%). The “M: velvetleaf, herbicidal effect” value [7, 33] was 2 (Herbicidal rate of 20% or more and less than 40%), the “herbicidal effect on D (Chinese sprangletop), rating 0-5” value [8] was 3 (Herbicidal rate of 40% or more and less than 70%) and the “O: lambsquarters, herbicidal effect rating” value ([9]; AAH 320 g/ha) was 0 (Herbicidal rate of 5% or less (almost no effect)). The “I: wild oat, herbicidal effect” value [10, 33] was 0 (Herbicidal rate of 5% or less (almost no effect)), the “R: persian speedwell, herbicidal effect rating” value ([11]; AAH 320 g/ha) was 3 (Herbicidal rate of 40% or more and less than 70%) and the “F: southern crabgrass, herbicidal effect rating” value ([12]; AAH 320 g/ha) was 0 (Herbicidal rate of 5% or less (almost no effect)). The “H: barnyard grass, herbicidal effect rating” value ([13]; AAH 320 g/ha) was 0 (Herbicidal rate of 5% or less (almost no effect)), the “G: green foxtail, herbicidal effect” value [14, 33] was 4 (Herbicidal rate of 70% or more and less than 90%) and the “herbicidal effect on H (barnyard grass), rating 0-5” value [15] was 5 (Herbicidal rate of 90% or more (almost completely withered)). The “J: blackgrass, herbicidal effect rating” value ([16]; AAH 320 g/ha) was 1 (Herbicidal rate of 5% or more and less than 20%), the “P: chickweed, herbicidal effect” value [17, 33] was 5 (Herbicidal rate of 90% or more (almost completely withered)) and the “herbicidal effect rating, B: Japanese bulrush” value [18] was 0 (Herbicidal rate of 5% or less (almost no effect)). For the same compound, the “R: persian speedwell, herbicidal effect” value [19, 33] was 5 (Herbicidal rate of 90% or more (almost completely withered)), the “J: blackgrass, herbicidal effect” value [20, 33] was 5 (Herbicidal rate of 90% or more (almost completely withered)) and the “L: windgrass, herbicidal effect rating” value ([21]; AAH 320 g/ha) was 0 (Herbicidal rate of 5% or less (almost no effect)). The “F: southern crabgrass, herbicidal effect” value [22, 33] was 5 (Herbicidal rate of 90% or more (almost completely withered)), the “L: windgrass, herbicidal effect” value [23, 33] was 5 (Herbicidal rate of 90% or more (almost completely withered)) and the “herbicidal effect rating, C: oval-leafed pondweed” value [24] was 0 (Herbicidal rate of 5% or less (almost no effect)). The “G: green foxtail, herbicidal effect rating” value ([25]; AAH 320 g/ha) was 0 (Herbicidal rate of 5% or less (almost no effect)), the “M: velvetleaf, herbicidal effect rating” value ([26]; AAH 320 g/ha) was 0 (Herbicidal rate of 5% or less (almost no effect)) and the “P: chickweed, herbicidal effect rating” value ([27]; AAH 320 g/ha) was 3 (Herbicidal rate of 40% or more and less than 70%). For the same compound, the “K: Italian ryegrass, herbicidal effect rating” value ([28]; AAH 320 g/ha) was 3 (Herbicidal rate of 40% or more and less than 70%), the “herbicidal effect on E (rice flat sedge), rating 0-5” value [29] was 5 (Herbicidal rate of 90% or more (almost completely withered)) and the “O: lambsquarters, herbicidal effect” value [30, 33] was 1 (Herbicidal rate of 5% or more and less than 20%).
